# Assays:
# Decitabine = compound: Nc1ncn([C@H]2C[C@H](O)[C@@H](CO)O2)c(=O)n1 [Decitabine]; assay: relative viability (nuclei count vs DMSO), 5 days (fraction); higher = more cells survive
# Outline: (§1)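 Hoechst staining, done together with fixation and permeabilisation, marked nuclei for 4× imaging and MetaXpress counting. This followed 5 days without medium change after lung cancer cell lines, kept overnight at 37 °C in 1536-well plates, were pinned with five library-drug doses (not always all listed) spaced by √10 on vehicle-anchored plates. Viability is the ratio of treated-well to vehicle-well nuclei, expressed as a median across plates. Plates passed only at control CV below 25% with at least one doubling.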
# Halofuginone = compound: O=C(C[C@H]1NCCC[C@@H]1O)Cn1cnc2cc(Br)c(Cl)cc2c1=O (racemic) [Halofuginone]; assay: as above
# Outline: as §1
cell line,measurement,setting,value
NCI-H2023,relative viability,Decitabine; 0.04 µM,0.678
same,relative viability,Decitabine; 0.1265 µM,0.516
same,relative viability,Decitabine; 0.4 µM,0.249
same,relative viability,Decitabine; 1.265 µM,0.206
same,relative viability,"Decitabine; 2 µM, anchor plate",0.227
same,relative viability,Decitabine; 4 µM,0.172
same,relative viability,Halofuginone; 0.001 µM,0.98
same,relative viability,Halofuginone; 0.003162 µM,1.05
same,relative viability,Halofuginone; 0.01 µM,0.931
same,relative viability,Halofuginone; 0.03162 µM,0.516
same,relative viability,Halofuginone; 0.1 µM,0.082
NCI-H2085,relative viability,Decitabine; 0.04 µM,0.812
same,relative viability,Decitabine; 0.1265 µM,0.768
same,relative viability,Decitabine; 0.4 µM,0.65
same,relative viability,Decitabine; 1.265 µM,0.528
same,relative viability,"Decitabine; 2 µM, anchor plate",0.559
same,relative viability,Decitabine; 4 µM,0.528
same,relative viability,Halofuginone; 0.001 µM,1.03
same,relative viability,Halofuginone; 0.003162 µM,1.07
same,relative viability,Halofuginone; 0.01 µM,0.989
same,relative viability,Halofuginone; 0.03162 µM,1.04
same,relative viability,Halofuginone; 0.1 µM,0.935
NCI-H2087,relative viability,Decitabine; 0.04 µM,0.574
same,relative viability,Decitabine; 0.1265 µM,0.567
same,relative viability,Decitabine; 0.4 µM,0.561
same,relative viability,Decitabine; 1.265 µM,0.296
same,relative viability,"Decitabine; 2 µM, anchor plate",0.294
same,relative viability,Decitabine; 4 µM,0.367
same,relative viability,Halofuginone; 0.001 µM,1.09
same,relative viability,Halofuginone; 0.003162 µM,1.21
same,relative viability,Halofuginone; 0.01 µM,0.975
same,relative viability,Halofuginone; 0.03162 µM,0.886
same,relative viability,Halofuginone; 0.1 µM,0.836
NCI-H2126,relative viability,Decitabine; 0.04 µM,0.906
same,relative viability,Decitabine; 0.1265 µM,0.958
same,relative viability,Decitabine; 0.4 µM,0.709
same,relative viability,Decitabine; 1.265 µM,0.633
same,relative viability,"Decitabine; 2 µM, anchor plate",0.573
same,relative viability,Decitabine; 4 µM,0.582
same,relative viability,Halofuginone; 0.001 µM,1.02
same,relative viability,Halofuginone; 0.003162 µM,0.992
same,relative viability,Halofuginone; 0.01 µM,0.949
same,relative viability,Halofuginone; 0.03162 µM,0.968
same,relative viability,Halofuginone; 0.1 µM,0.88
NCI-H2170,relative viability,Decitabine; 0.04 µM,0.839
same,relative viability,Decitabine; 0.1265 µM,0.746
same,relative viability,Decitabine; 0.4 µM,0.685
same,relative viability,Decitabine; 1.265 µM,0.475
same,relative viability,"Decitabine; 2 µM, anchor plate",0.471
same,relative viability,Decitabine; 4 µM,0.473
same,relative viability,Halofuginone; 0.001 µM,0.988
same,relative viability,Halofuginone; 0.003162 µM,1.05
same,relative viability,Halofuginone; 0.01 µM,0.917
same,relative viability,Halofuginone; 0.03162 µM,0.982
same,relative viability,Halofuginone; 0.1 µM,0.991
NCI-H2228,relative viability,Decitabine; 0.04 µM,0.665
same,relative viability,Decitabine; 0.1265 µM,0.539
same,relative viability,Decitabine; 0.4 µM,0.426
same,relative viability,Decitabine; 1.265 µM,0.283
same,relative viability,Decitabine; 4 µM,0.275
same,relative viability,Halofuginone; 0.001 µM,0.966
same,relative viability,Halofuginone; 0.003162 µM,0.995
same,relative viability,Halofuginone; 0.01 µM,0.981
same,relative viability,Halofuginone; 0.03162 µM,0.642
same,relative viability,Halofuginone; 0.1 µM,0.194
NCI-H2342,relative viability,Decitabine; 0.04 µM,0.977
same,relative viability,Decitabine; 0.1265 µM,1.05
same,relative viability,Decitabine; 0.4 µM,0.97
same,relative viability,Decitabine; 1.265 µM,0.671
same,relative viability,"Decitabine; 2 µM, anchor plate",0.745
same,relative viability,Decitabine; 4 µM,0.645
same,relative viability,Halofuginone; 0.001 µM,1.07
same,relative viability,Halofuginone; 0.003162 µM,0.956
same,relative viability,Halofuginone; 0.01 µM,0.961
same,relative viability,Halofuginone; 0.03162 µM,0.963
same,relative viability,Halofuginone; 0.1 µM,0.95
NCI-H2347,relative viability,Decitabine; 0.04 µM,0.885
same,relative viability,Decitabine; 0.1265 µM,0.887
same,relative viability,Decitabine; 0.4 µM,0.697
same,relative viability,Decitabine; 1.265 µM,0.6
same,relative viability,"Decitabine; 2 µM, anchor plate",0.587
same,relative viability,Decitabine; 4 µM,0.66
same,relative viability,Halofuginone; 0.001 µM,1.08
same,relative viability,Halofuginone; 0.003162 µM,1.01
same,relative viability,Halofuginone; 0.01 µM,1.02
same,relative viability,Halofuginone; 0.03162 µM,1.02
same,relative viability,Halofuginone; 0.1 µM,0.886
NCI-H2405,relative viability,Decitabine; 0.04 µM,0.898
same,relative viability,Decitabine; 0.1265 µM,0.903
same,relative viability,Decitabine; 0.4 µM,0.758
same,relative viability,Decitabine; 1.265 µM,0.596
same,relative viability,"Decitabine; 2 µM, anchor plate",0.745
same,relative viability,Decitabine; 4 µM,0.49
same,relative viability,Halofuginone; 0.001 µM,1.16
same,relative viability,Halofuginone; 0.003162 µM,1.03
same,relative viability,Halofuginone; 0.01 µM,1.01
same,relative viability,Halofuginone; 0.03162 µM,0.96
same,relative viability,Halofuginone; 0.1 µM,0.876
NCI-H3122,relative viability,Decitabine; 0.04 µM,0.964
same,relative viability,Decitabine; 0.1265 µM,0.964
same,relative viability,Decitabine; 0.4 µM,0.624
same,relative viability,Decitabine; 1.265 µM,0.473
same,relative viability,"Decitabine; 2 µM, anchor plate",0.471
same,relative viability,Decitabine; 4 µM,0.647
same,relative viability,Halofuginone; 0.001 µM,1
same,relative viability,Halofuginone; 0.003162 µM,0.984
same,relative viability,Halofuginone; 0.01 µM,0.968
same,relative viability,Halofuginone; 0.03162 µM,0.941
same,relative viability,Halofuginone; 0.1 µM,0.95
PC-3 [JPC-3],relative viability,Decitabine; 0.1265 µM,0.85
same,relative viability,Decitabine; 0.4 µM,0.537
same,relative viability,Decitabine; 1.265 µM,0.611
same,relative viability,"Decitabine; 2 µM, anchor plate",0.847
same,relative viability,Decitabine; 4 µM,0.627
same,relative viability,Halofuginone; 0.001 µM,1.06
same,relative viability,Halofuginone; 0.003162 µM,1.04
same,relative viability,Halofuginone; 0.01 µM,1.01
same,relative viability,Halofuginone; 0.03162 µM,1.09
same,relative viability,Halofuginone; 0.1 µM,0.982
PC-14,relative viability,Decitabine; 0.04 µM,0.393
same,relative viability,Decitabine; 0.1265 µM,0.449
same,relative viability,Decitabine; 0.4 µM,0.156
same,relative viability,Decitabine; 1.265 µM,0.149
same,relative viability,"Decitabine; 2 µM, anchor plate",0.218
same,relative viability,Decitabine; 4 µM,0.163
same,relative viability,Halofuginone; 0.001 µM,1.02
same,relative viability,Halofuginone; 0.003162 µM,1
same,relative viability,Halofuginone; 0.01 µM,0.93
same,relative viability,Halofuginone; 0.03162 µM,0.639
same,relative viability,Halofuginone; 0.1 µM,0.348
RERF-LC-KJ,relative viability,Decitabine; 0.04 µM,0.951
same,relative viability,Decitabine; 0.1265 µM,0.967
same,relative viability,Decitabine; 0.4 µM,0.561
same,relative viability,Decitabine; 1.265 µM,0.688
same,relative viability,"Decitabine; 2 µM, anchor plate",0.728
same,relative viability,Decitabine; 4 µM,0.642
same,relative viability,Halofuginone; 0.001 µM,1.08
same,relative viability,Halofuginone; 0.003162 µM,1.07
same,relative viability,Halofuginone; 0.01 µM,0.951
same,relative viability,Halofuginone; 0.03162 µM,0.966
same,relative viability,Halofuginone; 0.1 µM,0.912
SK-LU-1,relative viability,Decitabine; 0.04 µM,0.788
same,relative viability,Decitabine; 0.1265 µM,0.703
same,relative viability,Decitabine; 0.4 µM,0.46
same,relative viability,Decitabine; 1.265 µM,0.482
same,relative viability,"Decitabine; 2 µM, anchor plate",0.631
same,relative viability,Decitabine; 4 µM,0.411
same,relative viability,Halofuginone; 0.001 µM,1.09
same,relative viability,Halofuginone; 0.003162 µM,1.05
same,relative viability,Halofuginone; 0.01 µM,1.04
same,relative viability,Halofuginone; 0.03162 µM,1.05
same,relative viability,Halofuginone; 0.1 µM,0.588
SK-MES-1,relative viability,Decitabine; 0.04 µM,0.827
same,relative viability,Decitabine; 0.1265 µM,0.707
same,relative viability,Decitabine; 0.4 µM,0.461
same,relative viability,Decitabine; 1.265 µM,0.339
same,relative viability,"Decitabine; 2 µM, anchor plate",0.378
same,relative viability,Decitabine; 4 µM,0.305
same,relative viability,Halofuginone; 0.001 µM,1.04
same,relative viability,Halofuginone; 0.003162 µM,1.05
same,relative viability,Halofuginone; 0.01 µM,0.978
same,relative viability,Halofuginone; 0.03162 µM,0.827
same,relative viability,Halofuginone; 0.1 µM,0.271
SW 900,relative viability,Decitabine; 0.04 µM,0.465
same,relative viability,Decitabine; 0.1265 µM,0.477
same,relative viability,Decitabine; 0.4 µM,0.298
same,relative viability,Decitabine; 1.265 µM,0.25
same,relative viability,"Decitabine; 2 µM, anchor plate",0.433
same,relative viability,Decitabine; 4 µM,0.265
same,relative viability,Halofuginone; 0.001 µM,0.911
same,relative viability,Halofuginone; 0.003162 µM,0.888
same,relative viability,Halofuginone; 0.01 µM,0.664
same,relative viability,Halofuginone; 0.03162 µM,1.02
same,relative viability,Halofuginone; 0.1 µM,0.569
SW 1573,relative viability,Decitabine; 0.04 µM,0.815
same,relative viability,Decitabine; 0.1265 µM,0.944
same,relative viability,Decitabine; 0.4 µM,0.732
same,relative viability,Decitabine; 1.265 µM,0.486
same,relative viability,"Decitabine; 2 µM, anchor plate",0.504
same,relative viability,Decitabine; 4 µM,0.379
same,relative viability,Halofuginone; 0.001 µM,1.08
same,relative viability,Halofuginone; 0.003162 µM,1.06
same,relative viability,Halofuginone; 0.01 µM,0.908
same,relative viability,Halofuginone; 0.03162 µM,0.692
same,relative viability,Halofuginone; 0.1 µM,0.278

# From the supplement of paper PMC10307832
